Read-outs that look alike come from different tables or passages of the source.
Tests used:
[1] = system: A375-C5; experiment: Sulforhodamine B (SRB) growth inhibition assay, melanoma cells; assay type: cell-based; conditions: Homo sapiens, 48 h
Method: (§1) A sulforhodamine B (SRB) assay was performed to evaluate the in vitro growth inhibitory activity of all synthesized hybrids, as well as intermediates in the human tumor cell lines of melanoma (A375-C5), breast adenocarcinoma (MCF-7), and colorectal carcinoma (HCT116), as well as on the non-tumor Human Pulmonary Alveolar Epithelial cell line (HPAEpiC). The concentration inducing 50% cell growth inhibition (GI50), was calculated. […] The overall results prompt us to further investigate the mechanism behind the cytotoxic activities of compounds 6, 7, and 13 in colorectal tumor cells. Moreover, in silico studies were performed, aiming to screen for drug-likeness.
(§2) A375-C5 (melanoma) and MCF-7 (breast adenocarcinoma) cell lines were obtained from the European Collection of Cell Culture, UK, and were grown in RPMI-1640 medium (Roswell Park Memorial Institute, Biochrom, Cambridge, UK) with 5% inactivated FBS (fetal bovine serum, Biochrom). HCT-116 (colon adenocarcinoma) cells were grown in DMEM medium (Dulbecco’s Modified Eagle’s, Biochrom) with 5% inactivated FBS. The non-tumor human pulmonary alveolar epithelial cells (HPAEpiC) were obtained from ScienCell Research Laboratories and grown in DMEM medium supplemented with 10% FBS and 1% non-essential amino acids (Sigma-Aldrich Co., Saint Louis, MO, USA). All cell lines were maintained in a humidified incubator (Hera Cell, Heraeus, Hanau, Germany) at 37 °C and with 5% CO2, and cell viability was regularly monitored using the exclusion trypan blue dye.
(§3) A total of 5.0 × 10^4 A375-C5, MCF-7, and HCT-116 cells, or 6.0 × 10^4 HPAEpiC cells were seeded in 96-well plates and incubated at 37 °C and 5% CO2 to allow for cell attachment. After 24 h, cells were treated with two-fold serial dilutions of test compounds (0–150 µM), or with DMSO as the compound solvent. In parallel, cells in a time-zero (T0) plate, without treatment, were fixed with 50% (m/v) trichloroacetic acid (TCA, Merck Millipore, Darmstadt, Germany), for 1 h at 4 °C, and then washed with distilled water and left to dry. Forty-eight hours after compound treatment, cells were fixed with 50% TCA and stained with SRB (Sigma-Aldrich Co., Ltd., Gillingham, UK) for 30 min at room temperature, followed by 5 rounds of washing with 1% (v/v) acetic acid (Merck Milli-pore, Darmstadt, Germany). SRB–protein complexes were then solubilized with […] Tris buffer (Sigma-Aldrich Co., Ltd., Gillingham, UK) for 30 min, and the absorbance was measured at 515 nm in a microplate reader (Biotek Synergy 2, BioTek Instruments, Inc., Winooski, VT, USA). A dose-response curve was obtained for each cell line, and the concentration that caused 50% cell growth inhibition (GI50) was calculated.

[2] = system: MCF-7; experiment: SRB growth inhibition assay, breast adenocarcinoma cells; assay type: cell-based; conditions: Homo sapiens, MCF7, 48 h
Method: as §1, §2, §3

[3] = system: HCT116 (HCT116 p53+/+); experiment: SRB growth inhibition assay, colorectal carcinoma cells; assay type: cell-based; conditions: Homo sapiens, HCT-116
Method: as §1, §2, §3

[4] = system: HPAEpiC; experiment: SRB growth inhibition assay, non-tumor pulmonary alveolar epithelial cells; assay type: cell-based; conditions: Homo sapiens, Epithelial cell, 48 h
Method: as §1, §2, §3

[5] = system: A375-C5, MCF-7 and HCT116 cell lines; experiment: SRB growth inhibition, range over the tumor cell lines of Table 1; assay type: cell-based; conditions: Homo sapiens; SAR discussion, values of Table 1
Method: Considering the antiproliferative effects on tumor cells of all the studied compounds (Table 1), some SAR considerations may be undertaken (Figure 2). […] Nevertheless, this effect is not observed for the flavone derivatives 15 and 16. […] Additionally, with the screening of the synthetic intermediates, some conclusions can also be inferred (Figure 2).
as §3

[6] = SRB, 48 h, read-out: GI50 HCT116

Row | Compound | GI50 [1] | GI50 [2] | GI50 [3, 6] | GI50 [4] | melting point | GI50 [5] | GI50 ([3]; Table 2, 48 h, read-out: GI50 HCT116 p53+/+)
1 | CCCc1c(OCCNC(=O)c2cc(OC)c(OC)c(OC)c2)ccc(C(=O)/C=C/c2cc(OC)c(OC)c(OC)c2)c1O [Compound 8, (E)-N-(2-(3-hydroxy-2-propyl-4-(3-(3,4,5-trimethoxyphenyl)acryloyl)phenoxy)ethyl)-3,4,5-trimethoxybenzamide] | > 75 µM | > 75 µM | 13.5 ± 2.46 µM | > 75 µM | 201 to 203 °C |  | 
2 | CCCc1c(OCC(=O)O)ccc2c(=O)cc(-c3cc(OC)c(OC)c(OC)c3)oc12 [Compound 18, 2-((4-oxo-8-propyl-2-(3,4,5-trimethoxyphenyl)-4H-chromen-7-yl)oxy)acetic acid] | > 75 µM | > 75 µM | > 75 µM | > 75 µM |  |  | 
3 | CCCc1c(OCC(=O)O)ccc(C(=O)/C=C/c2cc(OC)c(OC)c(OC)c2)c1O [Compound 11, (E)-2-(3-hydroxy-2-propyl-4-(3-(3,4,5-trimethoxyphenyl)acryloyl)phenoxy)acetic acid] | 29.4 ± 1.05 µM | 58.3 ± 8.37 µM | 26.9 ± 1.6 µM | > 75 µM | 200 to 202 °C | 26.9 to 58.3 µM | 
4 | CCCc1c(OCCNC(=O)/C=C/c2cc(OC)c(OC)c(OC)c2)ccc2c(=O)cc(-c3cc(OC)c(OC)c(OC)c3)oc12 [Compound 15, (E)-N-(2-((4-oxo-8-propyl-2-(3,4,5-trimethoxyphenyl)-4H-chromen-7-yl)oxy)ethyl)-3-(3,4,5-trimethoxyphenyl)acrylamide] | > 75 µM | > 75 µM | > 75 µM | > 75 µM | 198 to 199 °C |  | 
5 | CCCc1c(OCC(=O)O)ccc(C(=O)/C=C/c2cc(OC)c(OC)c(OC)c2)c1OCC(=O)O [Compound 12, (E)-2,2’-((2-propyl-4-(3-(3,4,5-trimethoxyphenyl)acryloyl)-1,3-phenylene)bis(oxy))diacetic acid] | > 75 µM | > 75 µM | > 75 µM | > 75 µM | 212 to 214 °C | > 75 µM | 
6 | CCCc1c(OCCNC(=O)c2cc(OC)c(OC)c(OC)c2)ccc2c(=O)cc(-c3cc(OC)c(OC)c(OC)c3)oc12 [Compound 16, 3,4,5-trimethoxy-N-(2-((4-oxo-8-propyl-2-(3,4,5-trimethoxyphenyl)-4H-chromen-7-yl)oxy)ethyl)benzamide] | > 75 µM | > 75 µM | 28.6 ± 5.05 µM | > 75 µM | 196 to 199 °C |  | 
7 | CCCc1c(OCCNC(=O)OC(C)(C)C)ccc2c(=O)cc(-c3cc(OC)c(OC)c(OC)c3)oc12 [Compound 14, tert-butyl (2-((4-oxo-8-propyl-2-(3,4,5-trimethoxyphenyl)-4H-chromen-7-yl)oxy)ethyl)carbamate] | > 75 µM | > 75 µM | > 75 µM | > 75 µM | 191 to 193 °C |  | 
8 | CCCc1c(OCC(=O)Nc2cc(OC)c(OC)c(OC)c2)ccc2c(=O)cc(-c3cc(OC)c(OC)c(OC)c3)oc12 [Compound 17, 2-((4-oxo-8-Propyl-2-(3,4,5-trimethoxyphenyl)-4H-chromen-7-yl)oxy)-N-(3,4,5-trimethoxyphenyl)acetamide] | > 75 µM | > 75 µM | 24.7 ± 3.04 µM | > 75 µM | 195 to 197 °C |  | 
9 | COc1cccc2c1C(=O)c1c(O)c3c(c(O)c1C2=O)C[C@@](O)(C(=O)CO)C[C@@H]3O[C@H]1C[C@H](N)[C@H](O)[C@H](C)O1 [Doxorubicin, reference compound] | 0.028 ± 0.002 µM | 0.083 ± 0.003 µM | 0.085 ± 0.008 µM | 0.091 ± 0.013 µM |  |  | 
10 | COc1cc([C@@H]2c3cc4c(cc3[C@@H](O[C@@H]3O[C@@H]5CO[C@@H](C)O[C@H]5[C@H](O)[C@H]3O)[C@H]3COC(=O)[C@H]23)OCO4)cc(OC)c1O [Etoposide, reference compound] |  |  |  |  |  |  | 0.71 µM

From PMC10303900, “Discovery of a New Chalcone-Trimethoxycinnamide Hybrid with Antimitotic Effect: Design, Synthesis, and Structure—Activity Relationship Studies” (Pharmaceuticals, 2023)
